In patent US9908848B2, “Amide derivatives of lactam based N-acylethanolamine acid amidase (NAAA) inhibitors” (The Regents of the University of California, priority 2013, dated 2018):

What was measured:
[1] = tested on: carrageenan-induced paw edema and heat hyperalgesia; assay: Carrageenan-induced inflammation (paw edema, heat hyperalgesia); type: in vivo; settings: mice, intraperitoneal, 10-100 mg/kg
r-NAAA = target: T1, r-NAAA (Rattus norvegicus, UniProt Q5KTC7); assay: UPLC/MS r-NAAA assay; type: biochemical; settings: rat lung lysosomal NAAA preparation
T1 construct: Lysosomal NAAA protein preparation was obtained by homogenizing male Sprague-Dawley rat lungs; tissue Charles River; host or cells: male Sprague-Dawley rat lung, soluble lysosomal fraction
T1 sequence (Q5KTC7 34-362): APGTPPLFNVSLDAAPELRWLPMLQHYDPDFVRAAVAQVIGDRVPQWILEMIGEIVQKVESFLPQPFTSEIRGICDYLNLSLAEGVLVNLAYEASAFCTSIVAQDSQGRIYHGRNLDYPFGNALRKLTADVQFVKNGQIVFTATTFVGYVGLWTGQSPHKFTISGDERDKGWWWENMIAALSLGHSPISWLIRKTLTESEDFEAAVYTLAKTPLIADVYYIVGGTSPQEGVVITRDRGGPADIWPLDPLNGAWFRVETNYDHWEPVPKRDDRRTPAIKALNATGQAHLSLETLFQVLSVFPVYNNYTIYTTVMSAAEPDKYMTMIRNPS
Method: Lysosomal NAAA protein preparation was obtained by homogenizing male Sprague-Dawley rat lungs (Charles River) in 20 mM Tris-HCl buffer pH 7.4 containing 0.32M sucrose. Samples were centrifuged at 800×g for 15 min at 4° C. Supernatants were centrifuged at 12,000×g for 30 min at 4° C. Pellets were then resuspended in PBS pH 7.4 and subjected to a freeze/thaw cycle at −80° C. The suspension was finally centrifuged at 105,000 g for 1 h at 4° C. The supernatant was used in enzymatic assays.
NAAA preparations were pre-incubated with various concentrations of test compounds or vehicle control in 100 mM NaH2PO4/Citrate buffer, 1% Triton-X, 3 mM DTT (pH 4.5) for 30 min at 37° C. Samples were incubated with heptadecenoylethanolamide (50 μM, Avanti Polar Lipids) at 37° C. for 30 min. The reaction was terminated by addition of cold methanol containing heptadecanoic acid (NuCheck Prep) as internal standard. Samples were analyzed by UPLC/MS (Acquity, Waters). Heptadecenoic and heptadecanoic acids were eluted on an Acquity UPLC BEH C18 column (50 mm length, 2.1 mm i.d., 1.7 μm pore size, Waters) isocratically at 0.5 mL/min for 1.5 min with a solvent mixture of 95% methanol and 5% H2O, both containing 0.25% Acetic Acid and 5.0 mM ammonium acetate. The column temperature was 40° C. Electrospray ionization was in the negative mode, capillary voltage was 0.5 kV, cone voltage was […], desolvation temperature was 500° C. N2 was used as drying gas at a flow rate of 1000 L/hour and a temperature of 500° C. The [M−H]^− ion was monitored in the selected-ion monitoring mode (m/z values: heptadecenoic acid 267.37, heptadecanoic acid 269.37). Calibration curves were generated using commercial heptadecenoic acid (NuCheck Prep) Inhibition of NAAA activity was calculated as reduction of heptadecenoic acid in the samples compared to vehicle controls. IC50 values were calculated by non-linear regression analysis of log [concentration]/inhibition curves using GraphPad Prism 5 (GraphPad Software Inc., CA—USA) applying a standard slope curve fitting.

| SMILES | paw edema ([1]; FIG. 1 A) | heat hyperalgesia ([1]; FIG. 1 B) | IC50 (r-NAAA) [nM] |
| --- | --- | --- | --- |
| CCCCCCCCC(=O)N[C@H]1CNC1=O [Example 3, N-[(3S)-2-Oxoazetidin-3-yl]-nonanamide] | reduced | reduced | 240 |
| O=C(CCCCCCc1ccccc1)N[C@H]1CNC1=O [Example 7, 7-Phenyl-N-[(3S)-2-Oxoazetidin-3-yl]-heptanamide] |  |  | 2100 |
